Assays:
hDBP = target: T1, hDBP (Homo sapiens, UniProt P02774); test: Affinity for human DBP: competition with [3H]1α,25(OH)2D3; format: binding; details: percentage activity (at 50% of the dose response) in comparison with 1α,25(OH)2D3 (=100%)
T1 sequence (P02774 17-474): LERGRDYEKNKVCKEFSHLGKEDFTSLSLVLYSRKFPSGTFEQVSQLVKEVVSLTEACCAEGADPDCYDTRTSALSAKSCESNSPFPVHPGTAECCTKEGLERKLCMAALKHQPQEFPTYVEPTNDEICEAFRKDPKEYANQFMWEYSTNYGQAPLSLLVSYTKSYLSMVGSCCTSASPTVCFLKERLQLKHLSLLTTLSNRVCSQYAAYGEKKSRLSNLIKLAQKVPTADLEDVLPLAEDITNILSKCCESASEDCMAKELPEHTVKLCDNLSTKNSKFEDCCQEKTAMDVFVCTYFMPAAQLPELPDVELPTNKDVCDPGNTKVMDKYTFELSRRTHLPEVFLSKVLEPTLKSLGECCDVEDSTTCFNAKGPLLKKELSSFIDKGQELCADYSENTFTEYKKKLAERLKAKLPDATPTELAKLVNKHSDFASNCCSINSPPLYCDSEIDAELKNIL
Description: Phase separation was then obtained by the addition of 0.5 ml of cold dextran-coated charcoal.

HL-60 cells = test: HL-60 cell differentiation (NBT reduction assay); format: cell-based; details: for IN VITRO STUDIES HL 60: potency to differentiate HL 60 cells, percentage activity vs 1α,25(OH)2D3 (=100%); for prodifferentiating effect (in words): HL 60 cells
Description: To evaluate the effect on cell differentiation HL-60 cells were seeded at 4×10^4 cells/ml in 25 cm^2 Falcon tissue chambers using RPMI 1640 medium supplemented with 20% FCS and gentamycin (50 μg/ml) in a final volume of 5 ml. Cultures were maintained at 37° C. in a humidified atmosphere of 5% CO2 in air. […] After 4 days of culture, the dishes were shaken to lose adherent cells. Cells were washed twice in RPMI, counted and assayed for differentiation markers (NBT reduction assay). Superoxide production was measured as NBT reducing activity as described previously (Ostrem V. K et al. Proc Natl Acad Sci USA 84: 2610-2614, 1987). HL-60 cells at 1×10^6/ml were mixed with an equal volume of freshly prepared solution of phorbol 12-myristate 13-acetate (200 ng/ml) and […] and incubated for 30 min at 37° C. The percentage of cells containing black formazan deposits was determined using a hemacytometer.

MCF-7 cells = test: MCF-7 cell proliferation ([3H]thymidine incorporation); format: cell-based; details: for IN VITRO STUDIES MCF-7: antiproliferative action, percentage activity vs 1α,25(OH)2D3 (=100%); for antiproliferative effect (in words): MCF-7 cells; for Antiproliferative activity on MCF-7 cells: percentage activity (at 50% of the dose response) vs 1α,25(OH)2D3 (=100%)
Description: To evaluate the effect of on cell proliferation, malignant MCF-7 cells were cultured in DMEM/nut. mix. […] Cultures were maintained at 37° C. in a humidified atmosphere of 5% CO2 in air. MCF-7 cells were seeded at 5×10^3 cells/well in the above described medium in 96-well microtiter plates in a final volume of 0.2 ml per well. Triplicate cultures were performed. […] Then, 1 μCi [^3H]thymidine was added to each well and cells were harvested after 4 h incubation with a Packard harvester and measured by the Packard Topcount System (Packard, Meriden, USA).

vitamin D receptor = target: T2, vitamin D receptor (Sus scrofa, UniProt A3RGC1); details: percentage activity (at 50% of the dose response) in comparison with 1α,25(OH)2D3 (=100%)
T2 sequence (A3RGC1 1-427): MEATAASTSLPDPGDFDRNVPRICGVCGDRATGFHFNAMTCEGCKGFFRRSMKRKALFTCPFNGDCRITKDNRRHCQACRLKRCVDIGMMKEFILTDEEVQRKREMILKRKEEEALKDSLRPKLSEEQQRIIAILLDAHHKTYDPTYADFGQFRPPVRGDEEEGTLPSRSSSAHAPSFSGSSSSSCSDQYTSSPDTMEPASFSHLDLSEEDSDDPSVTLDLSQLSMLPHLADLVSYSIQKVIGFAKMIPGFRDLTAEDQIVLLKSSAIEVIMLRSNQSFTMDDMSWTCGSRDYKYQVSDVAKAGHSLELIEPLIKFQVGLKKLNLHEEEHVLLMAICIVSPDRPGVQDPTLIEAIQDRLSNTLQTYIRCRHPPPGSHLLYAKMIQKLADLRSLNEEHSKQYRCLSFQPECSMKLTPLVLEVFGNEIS
Description: The incubation was performed at 4° C. for 20 h and phase separation was obtained by addition of dextran-coated charcoal.

[1] = for IN VIVO STUDIES Osteocalcin serum: mice, daily intraperitoneal injection 7 consecutive days, percentage activity vs 1α,25(OH)2D3 (=100%); for IN VIVO STUDIES Calcium serum / IN VIVO STUDIES Calcium urine / Serum calcium in mice: ip
Description: Eight weeks old, male NMRI mice were obtained from the Proefdierencentrum of Leuven (Belgium) and fed a vitamin D-replete diet (0.2% calcium, 1% phosphate, 2000 U vitamin D/kg; Hope Farms, Woerden, The Netherlands). […] The control group was injected with vehicle (arachis oil). The average weight of each group of 6 mice was determined at the beginning and at the end of the experiment. The following parameters were evaluated: serum calcium, serum osteocalcin, femur calcium and urinary calcium. Serum and urinary calcium were measured by a microcolorimetric assay (Sigma, St. Louis, Mo.). Femurs were removed and femur calcium content was measured in HCl-dissolved bone ash (obtained by heating for 24 h in an oven at 100° C.), using the same technique as for serum and urinary calcium.

CCC1C(O)CC(=CC=C2CCCC3(C)C2CCC3C(C)CCCC(C)(C)O)CC1O (stereo not drawn) [Compound 114, 2α-ethyl-14-epi-19-nor-1α,25(OH)2D3]
AFFINITY STUDIES DBP (hDBP): 40%
IN VITRO STUDIES HL 60 (HL-60 cells): 80%
IN VITRO STUDIES MCF-7 (MCF-7 cells): 150%
AFFINITY STUDIES VDR (vitamin D receptor): 30%
IN VIVO STUDIES Osteocalcin serum [1]: 1%
IN VIVO STUDIES Calcium serum ([1]; mouse, in vivo): 1%
IN VIVO STUDIES Calcium urine ([1]; mouse, in vivo): 1%

CCC1C(O)CC(=CC=C2CCCC3(C)C2CCC3C(C)CCCC(C)(C)O)CC1O (stereo not drawn) [Compound 109, 2β-ethyl-19-nor-1α,25(OH)2D3]
AFFINITY STUDIES DBP (hDBP): 9%
prodifferentiating effect (in words) (HL-60 cells): less active than 1α,25(OH)2D3
IN VITRO STUDIES HL 60 (HL-60 cells): 10%
antiproliferative effect (in words) (MCF-7 cells): less active than 1α,25(OH)2D3
IN VITRO STUDIES MCF-7 (MCF-7 cells): 90%
AFFINITY STUDIES VDR (vitamin D receptor): 40%
IN VIVO STUDIES Osteocalcin serum [1]: 0.8%
further reduction of calcemic activity by the 2β counterpart ([1]; mouse, in vivo): 16 fold
IN VIVO STUDIES Calcium serum ([1]; mouse, in vivo): 0.4%
IN VIVO STUDIES Calcium urine ([1]; mouse, in vivo): 0.8%

CCC1C(O)CC(=CC=C2CCCC3(C)C2CCC3C(C)CCCC(C)(C)O)CC1O (stereo not drawn) [Compound 113]
AFFINITY STUDIES DBP (hDBP): 3%
IN VITRO STUDIES HL 60 (HL-60 cells): 10%
IN VITRO STUDIES MCF-7 (MCF-7 cells): 75%
AFFINITY STUDIES VDR (vitamin D receptor): 8%
IN VIVO STUDIES Osteocalcin serum [1]: 0.4%
IN VIVO STUDIES Calcium serum ([1]; mouse, in vivo): 0.4%
IN VIVO STUDIES Calcium urine ([1]; mouse, in vivo): 0.4%

CC(CC#CC(C)(C)O)C1CCC2C(=CC=C3CC(O)C(C)C(O)C3)CCCC21C (stereo not drawn) [Compound 103, 2β-methyl-19-nor-23-yn-1α,25-dihydroxyvitamin D3]
AFFINITY STUDIES DBP (hDBP): 1%
IN VITRO STUDIES HL 60 (HL-60 cells): 100%
IN VITRO STUDIES MCF-7 (MCF-7 cells): 900%
Antiproliferative activity on MCF-7 cells (MCF-7 cells): 900%
AFFINITY STUDIES VDR (vitamin D receptor): 20%
IN VIVO STUDIES Osteocalcin serum [1]: 0.8%
IN VIVO STUDIES Calcium serum ([1]; mouse, in vivo): 0.4%
IN VIVO STUDIES Calcium urine ([1]; mouse, in vivo): 1.6%
Serum calcium in mice ([1]; mouse, in vivo): 0.4%

CC(CCCC(C)(C)O)C1CCC2C(=CC=C3CC(O)C(C)C(O)C3)CCCC21C (stereo not drawn) [Compound 106, 14-epi-2α-methyl-19-nor-1α,25-dihydroxyvitamin D3]
AFFINITY STUDIES DBP (hDBP): 9%
prodifferentiating effect (in words) (HL-60 cells): very potent
IN VITRO STUDIES HL 60 (HL-60 cells): 600%
antiproliferative effect (in words) (MCF-7 cells): very potent
IN VITRO STUDIES MCF-7 (MCF-7 cells): 900%
AFFINITY STUDIES VDR (vitamin D receptor): 90%
IN VIVO STUDIES Osteocalcin serum [1]: 13%
IN VIVO STUDIES Calcium serum ([1]; mouse, in vivo): 13%
IN VIVO STUDIES Calcium urine ([1]; mouse, in vivo): 6%

CCC1C(O)CC(=CC=C2CCCC3(C)C2CCC3C(C)CC#CC(C)(C)O)CC1O (stereo not drawn) [Compound 115, 2β-ethyl-14-epi-19-nor-23-yne-1α,25(OH)2D3]
AFFINITY STUDIES DBP (hDBP): 0.2%
IN VITRO STUDIES HL 60 (HL-60 cells): 80%
IN VITRO STUDIES MCF-7 (MCF-7 cells): 600%
Antiproliferative activity on MCF-7 cells (MCF-7 cells): 600%
AFFINITY STUDIES VDR (vitamin D receptor): 9%
IN VIVO STUDIES Osteocalcin serum [1]: 0.1%
IN VIVO STUDIES Calcium serum ([1]; mouse, in vivo): <<0.1%
IN VIVO STUDIES Calcium urine ([1]; mouse, in vivo): <0.1%
Serum calcium in mice ([1]; mouse, in vivo): <<0.1%
